Measurements taken from ChEMBL document CHEMBL2321710, “Bioactive polyhydroxylated steroids from the Hainan soft coral Sinularia depressa Tixier-Durivault” (Bioorg Med Chem Lett, 2013).
In brackets after ≈: the same amount, converted by molar mass.

Experiments:
Staphylococcus aureus = assay: Antibacterial activity against Staphylococcus aureus Newman […]; type: functional, organism-based
[1] = molecular target: T1, Tyrosine-protein phosphatase non-receptor type 1 (Homo sapiens, UniProt P18031); assay: Inhibition of human PTP1B
T1 sequence (P18031 whole entry): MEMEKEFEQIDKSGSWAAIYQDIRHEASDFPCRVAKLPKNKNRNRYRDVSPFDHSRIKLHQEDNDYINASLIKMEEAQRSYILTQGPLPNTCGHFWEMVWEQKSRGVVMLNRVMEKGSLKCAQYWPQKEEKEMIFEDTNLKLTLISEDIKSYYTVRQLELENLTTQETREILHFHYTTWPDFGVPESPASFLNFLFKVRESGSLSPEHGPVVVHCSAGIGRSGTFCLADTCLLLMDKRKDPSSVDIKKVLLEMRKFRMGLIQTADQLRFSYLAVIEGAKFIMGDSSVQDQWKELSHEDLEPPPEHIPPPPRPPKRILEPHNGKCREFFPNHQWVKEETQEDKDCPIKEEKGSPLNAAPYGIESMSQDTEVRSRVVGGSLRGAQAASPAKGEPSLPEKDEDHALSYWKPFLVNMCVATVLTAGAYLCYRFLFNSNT

[2] = Neuroprotectivie activity against serum deprivation-induced toxicity in human SH-SY5Y cells assessed as increase in cell viability at 10 uM relative to control; type: functional
[3] = molecular target: Amyloid-beta precursor protein (Homo sapiens) (UniProt P05067); assay: Neuroprotectivie activity against amyloid beta (25 to 35)-induced toxicity in human SH-SY5Y cells assessed as increase in cell viability at 10 uM incubated for 2 hrs prior to amyloid beta (25 to 35)-challenge measured after 24 hrs by MTT assay relative to control; type: functional, cell-based
Sequence of Amyloid-beta precursor protein (Homo sapiens) (P05067 whole entry): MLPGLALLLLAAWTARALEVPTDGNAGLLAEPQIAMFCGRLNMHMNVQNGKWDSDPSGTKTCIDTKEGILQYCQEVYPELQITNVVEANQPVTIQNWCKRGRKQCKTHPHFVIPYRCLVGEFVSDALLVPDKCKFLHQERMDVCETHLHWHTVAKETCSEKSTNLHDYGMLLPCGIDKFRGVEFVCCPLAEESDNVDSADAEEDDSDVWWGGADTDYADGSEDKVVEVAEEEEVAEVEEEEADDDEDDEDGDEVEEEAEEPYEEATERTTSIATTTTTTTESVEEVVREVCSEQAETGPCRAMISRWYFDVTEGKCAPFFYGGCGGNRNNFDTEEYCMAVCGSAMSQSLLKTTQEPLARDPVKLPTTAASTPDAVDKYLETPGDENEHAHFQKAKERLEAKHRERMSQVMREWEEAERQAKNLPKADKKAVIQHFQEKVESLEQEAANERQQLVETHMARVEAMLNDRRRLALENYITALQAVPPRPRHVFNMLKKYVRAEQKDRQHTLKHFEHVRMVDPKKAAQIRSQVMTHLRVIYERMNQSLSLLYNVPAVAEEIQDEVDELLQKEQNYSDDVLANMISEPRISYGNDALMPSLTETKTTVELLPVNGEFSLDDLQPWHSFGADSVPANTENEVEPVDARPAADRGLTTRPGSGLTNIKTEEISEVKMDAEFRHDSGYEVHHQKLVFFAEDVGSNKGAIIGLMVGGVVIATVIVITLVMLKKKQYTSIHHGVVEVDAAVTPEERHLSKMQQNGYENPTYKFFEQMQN

MIC50 (Staphylococcus aureus) [µM] | SMILES | IC50 [1] [µM] | further results
1000 (≈ 473 µg/mL) | C=C(CC[C@@H](C)[C@H]1CC[C@H]2[C@@H]3[C@@H](OC(C)=O)C=C4C[C@@H](O)CC[C@]4(CO)[C@H]3CC[C@]12C)C(C)C |  | 
 | C=C(CC[C@@H](C)[C@H]1CC[C@@H]2[C@]1(C)CC[C@@H]1[C@@]3(C)CC[C@H](OC(C)=O)[C@@H](C)[C@@H]3CC[C@@]21O)C(C)C | 22.7 | 
 | C[C@@H]1O[C@@H]1P(=O)(O)O [FOSFOMYCIN SODIUM] |  | IC50 (Staphylococcus aureus): 137 µM
15.6 (≈ 7.66 µg/mL) | C=C(CC[C@@H](C)[C@H]1CC[C@H]2[C@@H]3C[C@@H](O)[C@@]4(O)C[C@@H](O)CC[C@]4(COC(C)=O)[C@H]3CC[C@]12C)C(C)C [ARMATINOL B] |  | 
 | C=C(CC[C@@H](C)[C@H]1CC[C@H]2[C@@H]3CCC4=CC(=O)CC[C@]4(C)[C@H]3CC[C@]12C)C(C)C | 15.3 | Activity [2]: 16.9%; Activity [3]: 16.6%
 | C=C(CC[C@@H](C)[C@H]1CC[C@@H]2[C@]1(C)C[C@H](O)[C@@H]1[C@@]3(C)CC[C@H](O)[C@@H](C)[C@@H]3CC[C@@]21O)C(C)C |  | Activity [3]: 20.1%
 | C=C(CC[C@@H](C)[C@H]1CC[C@H]2[C@@H]3CC[C@H]4[C@H](C)[C@@H](O)CC[C@]4(C)[C@H]3CC[C@]12C)C(C)C | 19.5 | 

SMILES | MIC50 (Staphylococcus aureus) [µM] | IC50 [1] [µM] | further results
C=C(CC[C@@H](C)[C@H]1CC[C@@H]2[C@]1(C)CC[C@H]1[C@]23CC[C@]2(C[C@@H](O)CC[C@]12C)OO3)C(C)C | 500 (≈ 215 µg/mL) |  | 
